Source: US9938273B2 (Plexxikon Inc., priority 2015, dated 2018)

Key:
c-KIT = molecular target: T1, c-KIT (Homo sapiens, UniProt P10721); test: AlphaScreen kinase assay with recombinant enzyme, c-KIT; format: biochemical; conditions: 100ATP, 8pt, GMean
T1 construct: purchased Millipore 14-559K
Procedure: (§1) In order to determine the effect of compounds on FLT3 catalytic activity, kinase assays using recombinant enzymes and AlphaScreen® technology have been established. The catalytic activity of c-kit activity was also measured to determine selectivity of the compounds. When the kinases are catalytically active, they phosphorylate a biotinylated peptide substrate on tyrosine residues. Using AlphaScreen® technology, the ability of the compounds to affect the catalytic activity of the kinases can be measured quantitatively. The peptide substrate is immobilized by the AlphaScreen® Streptavidin Donor beads and, upon phosphorylation by a tyrosine kinase, can bind to AlphaScreen® Anti-Phosphotyrosine (PY20) Acceptor beads. Upon excitation of these beads with laser light at 680 nm, singlet oxygen is produced. This singlet oxygen is rapidly quenched, unless the AlphaScreen® Anti-Phosphotyrosine (PY20) Acceptor beads are in close proximity, in which case a proximity signal can be measured at 580 nm. In the presence of catalytic activity, there is a very strong proximity signal. Selective kinase inhibitors affect a decrease in this proximity signal through a decrease in tyrosine phosphorylation of the peptide substrate.
(§2) The assay was performed as summarized below.
(§3) Poly (Glu4-Tyr) Peptide, biotin conjugate [Biotin-GG(EEEEY)10EE] (SEQ ID NO: 4)
(§4) Final concentration=30 nM
(§5) Final concentration for IC50 determination=10 μM (FLT3-D835Y or FLT3-ITD) or 100 μM (c-KIT)
(§6) AlphaScreen® Phosphotyrosine (PY20) Assay Kit
(§7) Final concentration=10 μg/mL
(§8) Dilute compounds in DMSO to 20× final concentration.
(§9) Add 1 μl of compound to each well of 384 well reaction plate (Perkin Elmer #6005359).
(§10) Mix enzyme and Poly (Glu4-Tyr) Peptide substrate at 1.33× final concentration in assay buffer.
(§11) Mix ATP at 5× final concentration in assay buffer.
(§12) Add 15 μL enzyme/substrate mixture to the reaction plate.
(§13) Add 4 μL of ATP to the reaction plate.
(§14) Mix Streptavidin Donor beads at 6× final concentration in Stop/Detection buffer.
(§15) Add 5 μL Streptavidin Donor beads to the reaction plate. Centrifuge 1 minute, shake to mix, and incubate at room temperature for 20 minutes.
(§16) Mix Anti-Phosphotyrosine (PY20) Acceptor beads at 6× final concentration in Stop/Detection buffer.
(§17) Add 5 μL Anti-Phosphotyrosine (PY20) beads to the reaction plate.
(§18) Centrifuge 1 minute, shake to mix, and incubate at room temperature for 60 minutes.
(§19) Read plate on Wallac EnVision™ 2103 Multilabel Reader.

FLT3-ITD = molecular target: T2, FLT3-ITD (Homo sapiens, UniProt P36888); test: AlphaScreen kinase assay with recombinant enzyme, FLT3-ITD; format: biochemical; conditions: 8pt; read-out: FLT3_ITD 8pt: IC50
T2 sequence (P36888 1-993): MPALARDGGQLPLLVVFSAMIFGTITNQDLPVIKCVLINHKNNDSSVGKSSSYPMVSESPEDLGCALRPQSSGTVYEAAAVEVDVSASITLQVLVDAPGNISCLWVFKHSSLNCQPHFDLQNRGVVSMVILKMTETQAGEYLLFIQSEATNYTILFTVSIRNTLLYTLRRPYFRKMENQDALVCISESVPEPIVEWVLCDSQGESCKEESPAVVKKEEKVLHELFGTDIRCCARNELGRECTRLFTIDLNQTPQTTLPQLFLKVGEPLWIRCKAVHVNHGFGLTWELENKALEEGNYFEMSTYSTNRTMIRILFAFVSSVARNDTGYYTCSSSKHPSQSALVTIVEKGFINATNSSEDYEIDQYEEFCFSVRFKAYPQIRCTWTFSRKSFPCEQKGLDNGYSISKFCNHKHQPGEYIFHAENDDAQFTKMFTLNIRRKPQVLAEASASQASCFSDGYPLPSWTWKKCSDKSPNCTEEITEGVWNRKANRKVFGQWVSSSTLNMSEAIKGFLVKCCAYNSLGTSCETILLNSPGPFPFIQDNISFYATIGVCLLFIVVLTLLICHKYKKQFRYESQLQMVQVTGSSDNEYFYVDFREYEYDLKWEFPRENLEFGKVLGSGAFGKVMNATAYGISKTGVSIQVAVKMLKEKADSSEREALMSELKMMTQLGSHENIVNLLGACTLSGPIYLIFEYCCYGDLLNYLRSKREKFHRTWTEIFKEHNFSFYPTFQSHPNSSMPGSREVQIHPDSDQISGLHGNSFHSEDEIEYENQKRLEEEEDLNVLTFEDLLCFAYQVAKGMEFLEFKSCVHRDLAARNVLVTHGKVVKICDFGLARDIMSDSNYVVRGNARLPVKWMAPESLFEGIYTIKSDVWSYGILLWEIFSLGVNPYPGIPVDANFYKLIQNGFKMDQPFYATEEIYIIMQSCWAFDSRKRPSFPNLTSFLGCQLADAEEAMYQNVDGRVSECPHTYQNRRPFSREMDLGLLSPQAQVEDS
Procedure: as §1, §2, §3, §4, §5, §6, §7, §8, §9, §10, §11, §12, §13, §14, §15, §16, §17, §18, §19

FLT3-D835Y = molecular target: T3, FLT3-D835Y (Homo sapiens, UniProt P36888, D835Y); test: AlphaScreen kinase assay with recombinant enzyme, FLT3-D835Y; format: biochemical; conditions: 8pt, GMean
T3 construct: purchased Invitrogen PV3967
T3 sequence (P36888 27-993 D835Y): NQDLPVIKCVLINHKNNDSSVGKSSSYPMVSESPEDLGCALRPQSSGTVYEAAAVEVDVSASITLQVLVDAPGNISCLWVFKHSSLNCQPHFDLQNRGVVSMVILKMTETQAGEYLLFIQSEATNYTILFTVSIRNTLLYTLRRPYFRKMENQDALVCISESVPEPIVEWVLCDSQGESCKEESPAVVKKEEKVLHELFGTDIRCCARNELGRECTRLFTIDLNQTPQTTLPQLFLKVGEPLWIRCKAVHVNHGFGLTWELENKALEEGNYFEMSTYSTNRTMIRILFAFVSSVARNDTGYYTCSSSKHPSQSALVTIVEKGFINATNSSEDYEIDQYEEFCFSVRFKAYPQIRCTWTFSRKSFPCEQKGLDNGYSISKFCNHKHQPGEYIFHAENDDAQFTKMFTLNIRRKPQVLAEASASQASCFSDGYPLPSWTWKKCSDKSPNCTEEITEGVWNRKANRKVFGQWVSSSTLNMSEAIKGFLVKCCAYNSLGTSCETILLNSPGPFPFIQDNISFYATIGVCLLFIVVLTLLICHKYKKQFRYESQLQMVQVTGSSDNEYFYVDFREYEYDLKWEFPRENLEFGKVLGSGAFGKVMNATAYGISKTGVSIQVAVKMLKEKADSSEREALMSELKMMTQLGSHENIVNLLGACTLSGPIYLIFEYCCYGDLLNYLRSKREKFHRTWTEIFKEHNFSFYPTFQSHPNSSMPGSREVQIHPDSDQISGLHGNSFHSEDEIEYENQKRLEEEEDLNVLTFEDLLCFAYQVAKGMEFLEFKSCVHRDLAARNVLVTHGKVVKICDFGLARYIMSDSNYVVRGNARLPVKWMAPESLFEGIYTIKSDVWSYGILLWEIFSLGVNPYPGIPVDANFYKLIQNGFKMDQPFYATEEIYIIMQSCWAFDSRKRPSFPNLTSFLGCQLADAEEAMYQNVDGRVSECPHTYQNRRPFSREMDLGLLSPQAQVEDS
Procedure: as §1, §2, §3, §4, §5, §6, §7, §8, §9, §10, §11, §12, §13, §14, §15, §16, §17, §18, §19

[1] = system: MOLM-14 D835Y cells, FLT3 ITD and FLT3 D835Y; test: Cell proliferation assay (CellTiter-Glo), MOLM-14 D835Y; format: cell-based; conditions: Homo sapiens, 72 h, 3d-Growth, GMean
Source text: The FLT3 inhibitors may be assessed using the MOLM-14, Acute Myeloid Leukemia cell line that endogenously expresses FLT3 ITD or derivatives of the human FLT3 AML cell line which acquired the D835Y (activation loop) of F691L (gatekeeper) mutation after selection in escalating doses of the FLT3 Inhibitor AC220. FLT3 inhibitors may also be assessed using cells that are engineered to express mutant FLT3. For engineered cells, murine Ba/F3 cells were transfected with full-length FLT3 ITD/D835Y mutations. The parental BA/F3 cells are dependent upon Interleukin-3 (IL-3) for survival, and introduction of the FLT3 constructs rendered these cells dependent upon FLT3 kinase activity when cultured in the absences of IL-3. Engineered BA/F3 cell growth assays can be performed in either the […] of IL-3, to assess the compound inhibition of FLT3 or to detect the presence of off-target activity, respectively. Inhibitors of FLT3 kinase activity reduce or eliminate the FLT3 oncogenic signaling, resulting in reduced cell proliferation. This inhibition is measured as a function of compound concentration to asses IC50 values.
Cell lines used in proliferation assays are as follows in Table 3:
Cells were seeded at 1×10^4 cells per well of a 96 well cell culture plate in 50 μl of cell culture medium. Compounds were dissolved in DMSO, typically at a concentration of 0.5 mM and were serially diluted 1:3 for a total of eight points and added to the cells to final concentrations of […], 0.0041, 0.0014 and 0.00046 μM in 100 μl cell culture medium (final concentration 0.2% DMSO). […] The cells were incubated at 37° C., 5% CO2 for three days. CellTiter-Glo Buffer (Promega Cell Viability Assay catalog #G7573) and substrate were equilibrated to room temperature, and enzyme/substrate Recombinant Firefly Luciferase/Beetle Luciferin was reconstituted. The cell plates were equilibrated to room temperature for 30 minutes, then lysed by addition of an equivalent volume of the Celltiter-Glo Reagent. The plate was mixed for 10 minutes on a plate shaker to lyse the cells. The plates were read on a Tecan M1000 using Luminescence protocol modified to read 0.1 s per well. The luminescence reading assesses the ATP content, which correlates directly with cell number such that the reading as a function of compound concentration was used to determine the IC50 value.

T1 sequence (P10721 26-976): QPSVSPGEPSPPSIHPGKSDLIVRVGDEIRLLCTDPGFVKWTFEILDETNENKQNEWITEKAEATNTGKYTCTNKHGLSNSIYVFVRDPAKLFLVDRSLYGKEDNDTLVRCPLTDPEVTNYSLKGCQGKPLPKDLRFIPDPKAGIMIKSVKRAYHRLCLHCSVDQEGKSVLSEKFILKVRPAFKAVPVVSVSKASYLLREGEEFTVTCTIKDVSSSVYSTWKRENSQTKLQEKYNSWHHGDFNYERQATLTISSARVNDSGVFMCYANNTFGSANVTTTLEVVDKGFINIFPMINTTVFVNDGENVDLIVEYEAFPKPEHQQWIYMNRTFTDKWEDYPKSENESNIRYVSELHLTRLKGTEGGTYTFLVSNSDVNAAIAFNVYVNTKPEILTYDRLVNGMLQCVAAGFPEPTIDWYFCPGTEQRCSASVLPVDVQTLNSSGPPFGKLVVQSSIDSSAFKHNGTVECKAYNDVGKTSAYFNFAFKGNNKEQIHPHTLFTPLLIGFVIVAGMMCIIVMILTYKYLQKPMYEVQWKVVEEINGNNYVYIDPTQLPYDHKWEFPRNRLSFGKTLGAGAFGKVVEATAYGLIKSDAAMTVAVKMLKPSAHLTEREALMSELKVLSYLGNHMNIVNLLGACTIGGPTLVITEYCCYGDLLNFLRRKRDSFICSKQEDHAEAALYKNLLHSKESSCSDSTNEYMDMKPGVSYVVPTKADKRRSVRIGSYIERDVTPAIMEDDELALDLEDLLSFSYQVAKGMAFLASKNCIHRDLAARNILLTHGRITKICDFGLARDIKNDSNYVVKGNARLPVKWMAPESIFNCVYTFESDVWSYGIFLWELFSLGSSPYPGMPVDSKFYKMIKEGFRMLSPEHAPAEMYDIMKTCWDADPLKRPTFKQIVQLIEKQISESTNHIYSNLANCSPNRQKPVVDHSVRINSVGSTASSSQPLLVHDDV

| Compound | IC50 (c-KIT) [µM] | IC50 (FLT3-ITD) [µM] | IC50 (FLT3-D835Y) [µM] | IC50 [1] [µM] |
| --- | --- | --- | --- | --- |
| O=C(c1ccc(-c2cnc3[nH]c(-c4ccccc4)cc3c2)s1)N1CCC(n2ccnc2)C1 (centres unmarked) [Compound P-0110, (3-imidazol-1-ylpyrrolidin-1-yl)-[5-(2-phenyl-1H-pyrrolo[2,3-b]pyridin-5-yl)-2-thienyl]methanone] | 10 to 50 |  |  |  |
| NC1CCC(NC(=O)c2n[nH]c3ccc(-c4cnc5[nH]c(-c6ccccc6)cc5c4)cc23)CC1 (centres unmarked) [Compound P-0019, N-(4-aminocyclohexyl)-5-(2-phenyl-1H-pyrrolo[2,3-b]pyridin-5-yl)-1H-indazole-3-carboxamide] | 0.0001 to 10 | 0.0001 to 10 | 0.0001 to 10 |  |
| Cn1cc(NC(=O)c2cccc(-c3cnc4[nH]c(-c5ccccc5)cc4c3)n2)cn1 [Compound P-0065, N-(1-methylpyrazol-4-yl)-6-(2-phenyl-1H-pyrrolo[2,3-b]pyridin-5-yl)pyridine-2-carboxamide] | 10 to 50 |  | 0.0001 to 10 |  |
| CN[C@H]1CCN(C(=O)c2cccc(-c3cnc4[nH]c(-c5ccccc5)cc4c3)n2)C1 [Compound P-0051, [(3S)-3-(methylamino)pyrrolidin-1-yl]-[6-(2-phenyl-1H-pyrrolo[2,3-b]pyridin-5-yl)-2-pyridyl]methanone] | 0.0001 to 10 | 0.0001 to 10 | 0.0001 to 10 |  |
| O=C(O)C1CCN(C(=O)c2cccc(-c3cnc4[nH]c(-c5ccccc5)cc4c3)n2)CC1 [Compound P-0024, 1-[6-(2-phenyl-1H-pyrrolo[2,3-b]pyridin-5-yl)pyridine-2-carbonyl]piperidine-4-carboxylic acid] | 10 to 50 | 0.0001 to 10 | 0.0001 to 10 |  |
| CC(C)(C#N)NC(=O)c1cccc(-c2cnc3[nH]c(-c4ccnc(F)c4)cc3c2)n1 [Compound P-0209, N-(1-cyano-1-methyl-ethyl)-6-[2-(2-fluoro-4-pyridyl)-1H-pyrrolo[2,3-b]pyridin-5-yl]pyridine-2-carboxamide] | 50 to 100 | 0.0001 to 10 | 0.0001 to 10 |  |
| Cc1cc(-c2cc3cc(-c4cccc(C(=O)NC(C)(C)C#N)n4)cnc3[nH]2)ccn1 [Compound P-0210, N-(1-cyano-1-methyl-ethyl)-6-[2-(2-methyl-4-pyridyl)-1H-pyrrolo[2,3-b]pyridin-5-yl]pyridine-2-carboxamide] | 50 to 100 | 0.0001 to 10 | 0.0001 to 10 |  |
| Cn1ccc(NC(=O)c2cccc(-c3cnc4[nH]c(-c5ccccc5)cc4c3)n2)n1 [Compound P-0066, N-(1-methylpyrazol-3-yl)-6-(2-phenyl-1H-pyrrolo[2,3-b]pyridin-5-yl)pyridine-2-carboxamide] | 50 to 100 | 0.0001 to 10 | 0.0001 to 10 |  |
| COC(=O)C1(NC(=O)c2cccc(-c3cnc4[nH]c(-c5ccccc5)cc4c3)n2)CC1 [Compound P-0129, methyl 1-[[6-(2-phenyl-1H-pyrrolo[2,3-b]pyridin-5-yl)pyridine-2-carbonyl]amino]cyclopropanecarboxylate] |  |  | 0.0001 to 10 | 0.0001 to 10 |
